Measured values taken from patent publication US10709724B2, “Methods of treating mitochondrial dysfunction” (Ecole Polytechnique Federale de Lausanne (EPFL), priority 2011, dated 2020).
“Also recorded” adds a separate entry of the source.

How the values were obtained:
C2C12 myotubes [1] = assay: NR uptake in C2C12 myotubes; type: in vitro ADME
C. elegans [2] = assay: NAD measurement by HPLC in worms; type: in vivo; details: day 4 of adulthood
Experimental: Worm Respiration Assays Oxygen consumption was measured using the Seahorse XF24 equipment (Seahorse Bioscience Inc., North Billerica, Mass.) as described in Yamamoto et al. Typically, 200 animals per conditions were recovered from NGM plates with M9 medium, washed three times in 2 mLM9 to eliminate residual bacteria, and resuspended in 500 μL M9 medium. Worms were transferred in 24-well standard Seahorse plates (#100777-004) (50 worms per well) and oxygen consumption was measured 6 times. Respiration rates were normalized to the number of worms in each individual well. NAD measurement by HPLC For NAD+ quantification, approximately 1000 worms were collected in M9 buffer, washed five times to remove residual bacteria and flash-frozen in liquid nitrogen and stored at −80° C. until analysis. Extraction was started by adding 250 μl of 1.6M perchloric acid on frozen samples, followed by extensive homogenization in a Qiagen tissuelyser, and centrifugation at 20.000 g for 15 min. The supernatant was recovered and neutralized with a 3M potassium carbonate solution. […]

C. elegans [3] = assay: Confocal microscopy of mitochondria in body wall muscle (pmyo-3::mito::GFP reporter); details: in vivo
Experimental: Confocal Microscopy and Image Processing Worms were immobilized with 6 mM solution of tetramisole hydrochloride (Sigma, Buchs, Switzerland) in M9 and mounted on 6% agarose pads on glass slides. Images of worms were acquired using Zeiss LSM 700 Upright confocal microscope (Carl Zeiss AG, Oberkochen, Germany) under non-saturating exposure conditions. All the snapshots were taken from the same part of C. elegans: muscles from the upper part of the worm, excluding the regions of oesophagus and vulva. For each condition multiple worms were observed and imaged. Image processing was performed with the Fiji software. One of the critical issues during the imaging process was the position of the worm, as it influences the level of background. For the uniformity of the represented images, contrast and brightness were adjusted in order, to eliminate the undesirable background signal. Neither of these manipulations was affecting the mitochondrial shape. Tracing of the mitochondrial network contour was done by the use of Gaussian blur filter followed by the application of Laplacian operator.

C57Bl/6J mice = assay: Hyperinsulinemic-euglycemic clamp in CD and CD-NR mice; type: in vivo; details: 4 weeks of treatment
Experimental: Hyperinsulinemic-euglycemic clamps were performed as described (Lagouge et al., 2006).

HEK293T cells = assay: Mitochondrial NAD+ in HEK293T cells; type: cell-based, human; details: 0.5 mM, 4 hrs
Experimental: NAD^+ NAM Determination. NAD^+ levels in cultured cells were determined using a commercial kit (Enzychrom™, BioAssays Systems, CA). For tissue samples NAD^+ and NAM levels were determined as described in (Sauve et al., 2005). In brief, to a weighed aliquot of frozen pulverized tissue we added as standards, ^18O-NAD^+ (typically 2.00 nmol) and ^18O-NAM (typically 2.00 nmol). 70 L of ice-cold 7% perchloric acid was then added and the sample was vortexed and sonicated three times, then centrifuged. Clear supernatant was removed and neutralized by additions of 3 M NaOH and 1 M phosphate buffer (pH=9), then centrifuged. Clear supernatant was injected onto HPLC C-18 column with 20 mM ammonium acetate eluent to separate NAD^+ and NAM from other cellular components, NAD^+ and NAM peaks (260 nm absorbance) were collected. Collections were lyophilized to dryness and subjected to MALDI-TOF analysis. For NAD^+ measurement, ratio of intensities for m/z=664 and 666 peaks, corresponding to ^16O- and ^18O-NAD^+ isotopomers, was multiplied by 2.00 nmol and then divided by tissue weight to determine NAD+ concentration in the sample. […] Other NAD metabolites were determined as previously described (Yang and Sauve, Synthesis of nictotinamide riboside and derivatives: effective agents for increasing nictinomide adenine dinucleotide concentrations in mammalian cells. J Med Chem 50, 6458-6461 (2006)).

C2C12 myotubes [4] = assay: Oxygen consumption in cultured C2C12 myotubes; type: cell-based
Experimental: Oxygen Consumption in Cultured Cells. Cellular O2 consumption was measured using a Seahorse bioscience XF24 analyzer with […] biological replicates per condition, in 24 well plates at 37° C., exactly as described (Canto et al., 2009). C2C12 were infected with an adenovirus encoding for FLAG-HA-PGC-1 and either scramble or SIRT1 shRNAs 48 h previous to O2 consumption measurements. Then myotubes were treated with 1 μM PJ34 for 48 h. In order to measure the contribution of fatty acid oxidation to global O2 consumption, total cellular O2 consumption was measured for 6 successive 2 min measurements at 5 min intervals. Then, 50 μl of etomoxir (1 M; Calbiochem, San Diego, Calif., USA) were added and, after […], 6 successive 2 min measurements were performed at 5 min intervals. The remaining O2 consumption was attributed to non-lipid substrates, while the difference with the initial O2 consumption values was considered due to fatty acid oxidation.

Km (C2C12 myotubes [1]) [µM]	SMILES	Vmax of NR uptake (C2C12 myotubes [1])	NAD+ levels in C. elegans (C. elegans [2])	mitochondrial content in body wall muscle (C. elegans [3])	mitochondrial morphology in body wall muscle (C. elegans [3])	glucose infusion rate to maintain euglycemia, vs vehicle (C57Bl/6J mice) [fold]	insulin-induced muscle glucose uptake (C57Bl/6J mice)	mitochondrial NAD+ levels in cultured cells (HEK293T cells)	O2 consumption rates (C2C12 myotubes [4]; 1 μM PJ34, 48 h)	O2 consumption with SIRT1 knock-down (C2C12 myotubes [4]; SIRT1 shRNA)	substrate contribution to the increase in O2 consumption (C2C12 myotubes [4]; etomoxir)
172 ± 17.6	NC(=O)c1ccc[n+]([C@@H]2O[C@H](CO)[C@@H](O)[C@H]2O)c1 [NR, nicotinamide riboside]	204.2±20.5 pmol/mg of protein/min	increased NAD+ levels; also recorded: increases	increase muscle mitochondrial content	affect mitochondrial morphology	~2	very marked increase	mitochondrial NAD^+ levels were enhanced	–	–	–
–	CN(C)CC(=O)Nc1ccc2[nH]c(=O)c3ccccc3c2c1 [PJ34]	–	–	–	–	–	–	–	enhanced oxidative metabolism	largely blunted	combination of enhanced oxidation of lipid and non-lipid substrates
